As a reminder, the IC50 is the concentration that inhibits the measured activity by half. A higher IC50 goes with a need for much substance. As a reminder, the Ki is a measure of affinity in units of concentration, obtained from inhibition or displacement. Read a high Ki as lower affinity.

Active and inactive are the calls of the source. The calls are words filed in the database; no cut-off is given here. Numbered stars: 1 amine (or outer) side, 2 acyl side, 3 side chain; on linkers, the order of the positions; unused ones are H or OH. Bridge positions count the residues as written; N and C are the ends. Square brackets hold non-standard residues; d marks the D form. Peptide text beside a SMILES is read from it. * marks the point of attachment. X1 = CO[C@@H]1CC[C@@H](C(=O)[*:2])N1[*:1]; NMeY = CN[C@@H](Cc1ccc(O)cc1)C(=O)O; Tigloyl = C/C=C(\C)C(=O)*; NHCH2CH2OH = OCCN* A value given as a limit tells only on which side of the number the result lay.

In test [1] the test system is HeLa. Nature of the test: Growth inhibition of human HeLa cells up to 50 uM after 72 hrs by MTT assay. In kind it is functional. On the technique in general: Tetrazolium assays rely on reduction of a dye to a coloured formazan, in cell work by metabolically active cells.
In test [2] the test system is HeLa. The experiment in a line: Cytotoxicity against human HeLa cells after 72 hrs by MTT assay. In kind it is functional, cell-based.
Test [3] has as its target T1, Chymotrypsinogen A (Bos taurus, UniProt P00766). Nature of the test: Inhibition of bovine pancreas alpha-chymotrypsin using N-succinyl-Gly-Gly-Phe-p-nitroanilide as substrate incubated for 15 mins followed by substrate addition measured every 30 secs.
The test system of test [4] is MCF7. The experiment in a line: Cytotoxicity against human MCF7 cells after 72 hrs by MTT assay. In kind it is functional, cell-based.
For test [5], the target named is Pancreatic elastase (Sus scrofa) (UniProt P08419+P00772). Nature of the test: Inhibition of porcine pancreas elastase up to 100 uM using N-succinyl-Ala-Ala-Ala-p-nitroanilide as substrate incubated for 15 mins followed by substrate addition measured every 30 secs. In kind it is protein assay.
Test [6] deals with A549. Nature of the test: Growth inhibition of human A549 cells up to 50 uM after 72 hrs by MTT assay. In kind it is functional.
Test [7] concerns the target Trypsin (Sus scrofa) (UniProt P00761). The experiment in a line: Inhibition of porcine pancreas trypsin up to 100 uM using N-alpha-benzoyl-DL-Arg-p-nitroanilide hydrochloride as substrate incubated for 15 mins followed by substrate addition measured every 30 secs.
Test [8] concerns MCF7. Nature of the test: Growth inhibition of human MCF7 cells up to 50 uM after 72 hrs by MTT assay. In kind it is functional.
For test [9], the system named is A549. Nature of the test: Cytotoxicity against human A549 cells after 72 hrs by MTT assay. In kind it is functional, cell-based.
Test [10] deals with T1, Chymotrypsinogen A. The experiment in a line: Competitive inhibition of bovine pancreas alpha-chymotrypsin using N-succinyl-Gly-Gly-Phe-p-nitroanilide as substrate incubated for 15 mins followed by substrate addition measured every 30 secs by double-reciprocal Lineweaver-Burk plot analysis.
For test [11], the target named is Chymotrypsinogen A (Bos taurus) (UniProt P00766). Nature of the test: Competitive inhibition of bovine pancreas alpha-chymotrypsin using N-succinyl-Gly-Gly-Phe-p-nitroanilide as substrate incubated for 15 mins followed by substrate addition measured every 30 secs by Dixon plot analysis.
Test [12] has the same target. The experiment in a line: Inhibition of bovine pancreas alpha-chymotrypsin up to 100 uM using N-succinyl-Gly-Gly-Phe-p-nitroanilide as substrate incubated for 15 mins followed by substrate addition measured every 30 secs.

Trypsin (Sus scrofa), sequence (P00761 whole entry): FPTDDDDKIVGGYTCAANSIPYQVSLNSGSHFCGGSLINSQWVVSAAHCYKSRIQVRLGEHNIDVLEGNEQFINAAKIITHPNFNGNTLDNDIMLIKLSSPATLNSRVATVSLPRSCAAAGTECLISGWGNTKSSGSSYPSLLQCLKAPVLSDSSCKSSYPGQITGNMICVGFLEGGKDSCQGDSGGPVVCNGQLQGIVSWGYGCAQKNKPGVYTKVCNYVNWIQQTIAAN

On to `C/C=C(\C)C(=O)N[C@@H](CCC(N)=O)C(=O)N[C@@H]1C(=O)N[C@@H](CCC(=O)NCCO)C(=O)N[C@H]2CC[C@@H](O)N(C2=O)[C@@H](Cc2ccccc2)C(=O)N(C)[C@@H](Cc2ccc(O)cc2)C(=O)N[C@@H](C)C(=O)O[C@@H]1C`, for which the “growth inhibition (GI)” value in test [1], in [6] and in test [8] was less than 30% each time. Besides, the result in test [2], in test [4] and in test [9] was inactive. The midpoint of inhibition in [3], the IC50, lay at 2100 nM. In addition, the inhibition result in test [5] and in test [7] was “inactive” each time.

For `C/C=C(\C)C(=O)N[C@@H](CCC(N)=O)C(=O)N[C@@H]1C(=O)N[C@@H](CCC(=O)NCCO)C(=O)N2[C@H](OC)CC[C@H]2C(=O)N[C@@H](Cc2ccccc2)C(=O)N(C)[C@@H](Cc2ccc(O)cc2)C(=O)N[C@@H](C)C(=O)O[C@@H]1C` (Tigloyl-QTE(NHCH2CH2OH)[X1]F[NMeY]A; ester 2-C), the “growth inhibition (GI)” value in [1], in [6] and in test [8] was less than 30% each time. Moreover, the result in test [2], in test [4] and in test [9] was inactive. Also, the midpoint of inhibition in test [3], the IC50, lay at 23100 nM. Moreover, the inhibition entry in [5] and in test [7] was “inactive” each time.

Take `C/C=C(\C)C(=O)N[C@@H](CCC(N)=O)C(=O)N[C@@H]1C(=O)N[C@@H](CCC(=O)NCCO)C(=O)N[C@H]2CC[C@@H](OC)N(C2=O)[C@@H](Cc2ccccc2)C(=O)N(C)[C@@H](Cc2ccc(O)cc2)C(=O)N[C@@H](C)C(=O)O[C@@H]1C`: the “growth inhibition (GI)” value in test [1], in test [6] and in test [8] was less than 30% in each case. The outcome in [2], in test [4] and in [9] was inactive. The IC50 in [3] was 1100 nM. Also, the Ki in test [10] came to 630 nM. Moreover, the inhibition result in [5] and in test [7] was “inactive” in each case. In test [11], the inhibition result was “Active”.

Consider `C/C=C(\C)C(=O)N[C@@H](CCC(N)=O)C(=O)N[C@@H]1C(=O)N[C@@H](CCC(=O)NCCO)C(=O)N2CCC[C@H]2C(=O)N[C@@H](Cc2ccccc2)C(=O)N(C)[C@@H](Cc2ccc(O)cc2)C(=O)N[C@@H](C)C(=O)O[C@@H]1C` (Tigloyl-QTE(NHCH2CH2OH)PF[NMeY]A; ester 2-C), for which the inhibition result in [12], in test [5] and in test [7] was “inactive” each time. Besides, the “growth inhibition (GI)” value in test [1], in test [6] and in test [8] was less than 30% in each case. Further, the result in test [2], in test [4] and in test [9] was inactive.

Source of the values: ChEMBL document CHEMBL4196216, “Dinghupeptins A-D, Chymotrypsin Inhibitory Cyclodepsipeptides Produced by a Soil-Derived Streptomyces” (J Nat Prod, 2018).
